A short description of series [1]: Hemolysis of human erythrocytes. The class given is cell-based. The note with it: 200 μM compound, 1 h, 37 °C. As for the experimental part:
(§1) The human erythrocyte concentrate was prepared according to the kit manual from the Biomaterial Hemolytic Assay Kit (Hemoscan). After the human erythrocytes had been washed and diluted with manufacture buffer, 100 μL of erythrocytes (10%) were added into 100 μL of various concentrations of compounds in PBS. 1% of Triton X (1%) was the positive control, while PBS was the negative control. The erythrocytes were then gently mixed with the TPA compounds and further incubated for an hour at 37 °C. After that, the erythrocytes were centrifuged (1000 rpm, 5 min), and 20 μL of supernatant was added to 180 μL of PBS in a 96-well plate. The optical density at 380, 415, and 450 nm was measured by a plate reader. The final OD value of the compounds was calculated as (2 × OD415) – (OD450 + OD380) where OD380, OD415, and OD450 are the optical density of the solution at 380, 415, and 450 nm, respectively. The hemolysis rates of the compounds were calculated as (ODcompound – ODPBS)/(ODTritonX – ODPBS) × 100% where ODcompound, ODPBS, and ODTritonX are the final OD values of the erythrocytes mixed with TPA compounds, PBS, and 1% Triton X, respectively. The experiment was performed in triplicate.

Series [2] deals with human erythrocytes. The series is described as follows: Hemolysis of human erythrocytes. The class given is cell-based. As for the experimental part: as §1
The test system of series [3] is S. aureus. The series is described as follows: Resistance development assay on S. aureus. The format is cell-based, Staphylococcus aureus. As for the experimental part: The MICs for TPA-1 and norfloxacin against S. aureus were first determined by the above-mentioned method. The wells with 0.5 × MIC of compounds were transferred to 1 mL fresh MHB and incubated under darkness for 3–4 h at 37 °C. The bacteria were then used to conduct a MIC assay again. The experiments were repeated for 20 days. The fold changes in the MIC values of the compounds were recorded. The experiments were performed in duplicate.

Series [4] deals with P. aeruginosa (ATCC 27853). Nature of the series: Wound infection mouse model, P. aeruginosa biofilm. The class given is in vivo. To be noted: mice, topical 90 μM, 600 nm 15 min, every 24 h for 4 days (TPA-1 + L). As for the experimental part:
All in vivo experiments were approved by the Department of Science and Technology of Zhejiang Province (SYXK(Zhejiang)2021-0043). Female BALB/c mice (10–12 weeks old) were kept in 12 h light and 12 h dark cycle with access to free food and water for 7 days before and throughout the experiment. The backs of the mice were shaved and disinfected with iodine. A full-thickness circular wound (7 mm in diameter) was then created at the back of the mice. The mice were allowed to recover for 24 h after surgery to prevent sepsis.[65] Ten μL of 1× 10^8 CFU/mL MRSA (ATCC 43300) or P. aeruginosa (ATCC 27853) in saline was added to the wound. The wound was covered with an adhesive dressing for 24 h of infection. Next, the mice were randomly divided into four groups: (1) 50 μL TPA-1 (90 μM) with 600 nm light irradiation (60 mW/cm^2) for 15 min, (2) 50 μL TPA-1 (90 μM) in dark, (3) 50 μL saline with 600 nm light irradiation (60 mW/cm^2) for 15 min, and (4) 50 μL saline in dark. For light irradiation groups, TPA-1 and saline were incubated on the wound for 10 min before irradiation. The treatment was sustained for 4 days. The wound size and body weight of the mice were recorded every day. On day 6, the mice were euthanatized, and the wound tissue was collected. […] The other half of the tissue was homogenized, and the number of viable bacteria was measured by the plate counting method.

Turning to `C#CCC[n+]1c(/C=C/c2ccc(-c3ccc(N(c4ccc(OCCC[N+](C)(C)C)cc4)c4ccc(OCCC[N+](C)(C)C)cc4)cc3)s2)sc2ccccc21.[Br-].[Br-].[Br-]` [TPA-1], the hemolysis at 1 h, 200 µM in series [1] was below 2%. In addition, the HC50 in series [2] was above 200 µM. In addition, the “increase of MIC against S. aureus after treatment for 20 days” value in series [3] (20 days of passages at 0.5 × MIC) amounted to 2 fold. The MIC in series [3] (Staphylococcus aureus, read-out: initial MIC against S. aureus in resistance development assay) was 3.12 µM. In addition, in series [4], the “P. aeruginosa eradicated in infected tissues” value is given as 96% ± 4% and the “P. aeruginosa log (CFU/mg tissue) reduction” value is 1.4 ± 0.4 log (CFU/mg tissue).

By HC50 is commonly meant the concentration that lyses half of the red blood cells. Lower therefore signals stronger haemolysis. One may read the MIC as the lowest concentration that inhibits growth of the organism.

For the origin of these results see publication PMC12035805, “A Water-Soluble Aggregation-Induced Emission Photosensitizer with Intrinsic Antibacterial Activity as an Antiplanktonic and Antibiofilm Therapeutic Agent” (Journal of Medicinal Chemistry, 2025).
